79 molecules from the METLIN SMRT retention time set (Domingo-Almenara et al. 2019) can be followed below.

The data set in a line: gradient 5% acetonitrile 3 min, to 50% in 2 min, to 85% in 15 min, held 3 min, 100 µL/min. To be noted: column: Zorbax Extend-C18 2.1 x 50 mm; eluents: water / acetonitrile, 0.1% formic acid. The method in brief:
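Pure standards were analyzed in mixtures of ~100 molecules using HPLC coupled to a quadrupole time-of-flight mass spectrometer, in both positive and negative ionization mode. Separation used a Zorbax Extend-C18 column (2.1 × 50 mm, 1.8 μm) at 100 μL/min, with water and acetonitrile each containing 0.1% formic acid. Dead and dwell volumes were 40 μL and 900 μL, and data were collected over 3 months. Retention time was read from computationally picked adduct peaks, each inspected manually.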
With `CCc1cc(=O)n(CC(=O)Nc2cccc(C)c2)c(N2CCOCC2)n1`, the RP-LC retention time was determined as 770 s.

As to `CC(Cc1ccco1)NC(=O)Cn1c2ccccc2c2cnn(C)c(=O)c21` (centres undefined), the RP-LC retention time is 790 s.

Molecule `COc1ccc(OC)c(CNS(=O)(=O)c2cccc(-c3nc(-c4ccc(C)cc4)no3)c2)c1` gave an RP-LC retention time of 1220 s.

`CN(C)c1ncncc1N1CCC(C(=O)N2CCN(c3ccc(F)cc3)CC2)CC1` displayed an RP-LC retention time of 641 s.

`CCC(=O)N1CCC2(CC1)c1nccn1-c1ccccc1CN2CC(C)C`: the RP-LC retention time turned out to be 632 s.

Turning to `CC(=O)N1CCc2nn(CC(=O)Nc3ccc(Cl)cc3F)c(=O)cc2C1`, the RP-LC retention time was determined as 663 s.

In turn, `Cc1ccc2nc(C)cc(C(=O)NC3CC3)c2c1` registered an RP-LC retention time of 586 s.

Molecule `Cc1nnc(C(C)C)n1C1C[C@H]2CC[C@@H](C1)N2CC[C@H](NC(=O)C1CCC(F)(F)CC1)c1ccccc1` (some centres undefined) yielded an RP-LC retention time of 666 s.

`O=C(CCn1cnc2cc(-c3noc(-c4ccc(F)c(F)c4)n3)ccc21)N1CCOCC1`: the RP-LC retention time stood at 740 s.

For the molecule `Cc1ccc2c(c1)N(S(C)(=O)=O)CCC(C(=O)NC1CC3CCC1C3)O2` (centres undefined), the RP-LC retention time is 941 s.

For `CCOc1ccc(-c2noc(CN3C(=O)COc4ccc(C(C)(C)C)cc43)n2)cc1OC`, the RP-LC retention time was found to be 1230 s.

In turn, `Cc1cc(C)nc(Sc2ccc(S(C)(=O)=O)cc2[N+](=O)[O-])n1` had an RP-LC retention time of 750 s.

`COc1ccc(NC(=O)Cn2c(=O)n(-c3ccc(C)cc3)c3ncccc32)c(OC)c1`: the RP-LC retention time was 872 s.

Molecule `O=C(NCc1n[nH]c(=O)c2ccccc12)c1ccc([N+](=O)[O-])o1` yielded an RP-LC retention time of 606 s.

As to `CSc1nnc(-c2nn(C)c3c2CN(C(=O)c2cccc(F)c2)CC3)n1C`, the RP-LC retention time was found to be 693 s.

`C=CCn1c(=O)c2sc(N(CC)CC)nc2n(CC(=O)Nc2c(C)cccc2C)c1=O`: the RP-LC retention time was found to be 830 s.

Take `CCn1ccc(C(=O)N2c3ccccc3CC2c2nc(C(C)C)no2)n1` (centres undefined): the RP-LC retention time amounted to 970 s.

Take `Cc1ccc(C)c(NC(=O)C2CCc3nc(N4CCOCC4)ncc3C2)c1` (centres undefined): the RP-LC retention time stood at 753 s.

In the case of `Cc1sc(NC(=O)c2ccc(F)cc2)nc1-c1ccc2c(c1)NC(=O)C(C)O2` (centres undefined), the RP-LC retention time amounted to 935 s.

In the case of `Cc1noc(C)c1CNC(=O)Cc1ccccc1Cl`, the RP-LC retention time came to 725 s.

As for `Cc1cc(C)c(S(=O)(=O)N2CCc3c(c(-c4nnc(-c5ccccc5F)o4)nn3C)C2)cc1C`, the RP-LC retention time came out at 1070 s.

On to `Cc1cc(C)c(S(=O)(=O)NCCn2c(C)cnc2C2CCC2)cc1C`, for which the RP-LC retention time is 696 s.

For the molecule `CCSc1nnc(NC(=O)C2CCC(=O)N2S(=O)(=O)c2ccc(C)cc2)s1` (centres undefined), the RP-LC retention time came out at 855 s.

Molecule `CCN(CCNC(=O)CCc1cc2ccc(C)cc2[nH]c1=O)Cc1ccccc1` registered an RP-LC retention time of 639 s.

In turn, `CCN1CCN(c2c(S(=O)(=O)c3ccc(OC)cc3)cnc3ccc(OC)cc23)CC1` came in with an RP-LC retention time of 640 s.

`O=C(NCCCN1CCN(c2ccccc2F)CC1)C1CCCN(c2nc3cccnc3s2)C1` (centres undefined) returned an RP-LC retention time of 652 s.

With `CCc1ccc(S(=O)(=O)c2cnc(N3CCN(c4ccccn4)CC3)nc2N)cc1`, the RP-LC retention time is 680 s.

For the molecule `CCOc1cc(-c2ccc(F)cc2)nc2ccc(NS(=O)(=O)c3ccc(C#N)cc3)cc12`, the RP-LC retention time was 801 s.

For `COC[C@@H]1CN(S(=O)(=O)c2cn(C)cn2)C[C@H]1c1ccccn1`, the RP-LC retention time stood at 567 s.

In the case of `COc1ccc(OC)c(NC(=O)c2[nH]c3cc(C)sc3c2CN2CCOCC2)c1`, the RP-LC retention time was 705 s.

`CCn1ccc(C(=O)NC2CCN(C3=NS(=O)(=O)C(c4ccccc4)=C3C)CC2)n1` showed an RP-LC retention time of 746 s.

`CC(NC(=O)c1cc(-c2ccccc2)cn1C)c1ccccn1` (centres undefined) had an RP-LC retention time of 703 s.

`O=C(NCC1CCCO1)c1nnc(-c2ccc(S(=O)(=O)N3CCCC3)cc2)o1` (centres undefined) had an RP-LC retention time of 729 s.

With `Cc1ccsc1-c1nc(-c2ccc3ncn(C)c3c2)no1`, the RP-LC retention time stood at 732 s.

Consider `CCOc1ccc2nc(SCC(=O)Nc3nccs3)[nH]c2c1`, for which the RP-LC retention time came out at 622 s.

Consider `CC(C(=O)N1CCN(c2ccccn2)CC1)N1Cc2ccccc2C1=O` (centres undefined), for which the RP-LC retention time is 587 s.

The molecule `O=C(Cn1nc2c(N3CCCCCC3)nccn2c1=O)Nc1cc(F)ccc1F` returned an RP-LC retention time of 731 s.

On to `Cc1ccsc1C(=O)N1C[C@@H]2CCCN3CCC[C@@H]([C@H]23)[C@H]1CCCC(=O)N1CCOCC1`, for which the RP-LC retention time is 593 s.

Molecule `COc1ccc2c(c1)N(CC(C)CN(C)C)c1ccccc1S2` (centres undefined) registered an RP-LC retention time of 804 s.

As to `CC(C)(C)NC(=O)NC1CCN(C(=O)C2CC2)C1` (centres undefined), the RP-LC retention time was determined as 610 s.

`COC(=O)c1c(-c2ccc(C)cc2)csc1NC(=O)C1CCN(C(C)=O)CC1`: the RP-LC retention time was found to be 932 s.

Regarding `Cc1cccc(N2CCN(C(=O)c3ccc(CN4CCN(C(C)C)C(=O)C4=O)cc3)CC2)c1`, the RP-LC retention time came out at 759 s.

For `CCCc1c(OCCCOc2ccc(OCC(=O)O)cc2)ccc(C(C)=O)c1O`, the RP-LC retention time was 1150 s.

`Cc1ccc(NC(=O)CN2C(=O)CCCc3cc(S(=O)(=O)N4CCCC4)ccc32)c(C)c1` yielded an RP-LC retention time of 852 s.

For `CCC(=O)O[C@]1(C(=O)CO)CC[C@H]2[C@@H]3CCC4=CC(=O)CC[C@]4(C)[C@H]3CC[C@@]21C`, the RP-LC retention time worked out at 1060 s.

`CCc1nncn1C1CCN(C(=O)c2cc(F)ccc2Cl)CC1` showed an RP-LC retention time of 628 s.

Consider `Cc1ccc(C(=O)Nc2ccc(OCc3nnc(-c4ccccc4)o3)cc2)s1`, for which the RP-LC retention time is 988 s.

With `Cc1oc2c(c(C)nn2-c2ccccc2)c(=O)c1Cl`, the RP-LC retention time is 954 s.

Molecule `O=C(Nc1cccc(Br)c1)C1CCN(C(=O)c2cc(-c3ccncc3)n[nH]2)CC1` showed an RP-LC retention time of 640 s.

Turning to `CC(=O)N1c2ccc(S(=O)(=O)N3CCCCCC3)cc2CC1C(=O)NCc1ccccc1` (centres undefined), the RP-LC retention time worked out at 912 s.

The molecule `O=C(NCC(c1ccco1)N1CCN(c2ccccc2)CC1)Oc1ccccc1` (centres undefined) yielded an RP-LC retention time of 625 s.

The molecule `Cn1c(=O)n(CC(=O)Nc2ccc(F)cc2F)c(=O)c2cnc(-c3ccccc3)nc21` showed an RP-LC retention time of 1000 s.

`COc1ccc(-c2noc(-c3ccc(NC(=O)COc4ccc(Br)cc4)cc3)n2)cc1` had an RP-LC retention time of 1280 s.

For the molecule `O=C1CCN(C(=O)C2COc3ccccc3O2)CCOCCN1` (centres undefined), the RP-LC retention time was found to be 634 s.

In turn, `COc1cccc2cc(-c3ccc(OCC(=O)N4CCC(C(N)=O)CC4)cc3)c(=O)oc12` registered an RP-LC retention time of 672 s.

The molecule `O=C(c1ccc2c(c1)OCO2)N1CCCCC1c1nncn1CC1CC1` (centres undefined) had an RP-LC retention time of 631 s.

In turn, `CCS(=O)(=O)N1CC(=O)N(c2ccc(C)c(C)c2)C(C)(C(=O)NCc2ccc(F)cc2)C1` (centres undefined) registered an RP-LC retention time of 846 s.

Molecule `COc1cc(CNCCSc2nnnn2C)cc(Br)c1OCc1ccccc1` came in with an RP-LC retention time of 744 s.

`COC(=O)c1c2c(nc3ccccc13)CCN(C(=O)Nc1ccccc1OC)C2` displayed an RP-LC retention time of 820 s.

`CCCn1c(=O)c(C)nc2cc(-c3noc(-c4ccsc4)n3)ccc21` displayed an RP-LC retention time of 1080 s.

`Cc1cc(-c2nnc(-c3ccc(F)cc3)o2)c(C)n1CC(=O)NC(C)c1ccccc1` (centres undefined) came in with an RP-LC retention time of 946 s.

Turning to `CCNC(=O)c1sc2nc(-c3cccc(C)c3)c(NCCOC)n2c1C`, the RP-LC retention time turned out to be 737 s.

`COC1C(=O)N(c2cccc(F)c2)C12CCN(C(=O)Nc1ccccc1F)CC2` (centres undefined) had an RP-LC retention time of 890 s.

`Cn1cc(CC(=O)NCc2ccc3c(c2)OCO3)c2cccnc21` registered an RP-LC retention time of 648 s.

As for `C=CCNC(=O)N1CC(=O)Nc2ccccc21`, the RP-LC retention time is 592 s.

`CCc1noc2nc(C)n(CC(=O)NCCc3ccccc3)c(=O)c12` came in with an RP-LC retention time of 800 s.

Consider `COCC(CN1CCN(C2=NS(=O)(=O)c3ccccc32)CC1)OC(=O)c1ccc(C)cc1` (centres undefined), for which the RP-LC retention time came to 646 s.

`COc1ccccc1-c1nnc(Nc2nc3ccc(SC)cc3s2)o1` yielded an RP-LC retention time of 830 s.

In the case of `COc1ccc(N2CC(c3noc(-c4cccc(Cl)c4)n3)CC2=O)cc1OC` (centres undefined), the RP-LC retention time was determined as 944 s.

Consider `COc1ccccc1N1CCN(c2cc(SCC(=O)NCc3ccccc3)ncn2)CC1`, for which the RP-LC retention time came to 823 s.

Regarding `COc1ccc(C(O)CN2CCN(c3cccc(C)c3)CC2)cc1OC` (centres undefined), the RP-LC retention time was found to be 653 s.

`CCn1c(CNC(=O)C2CCC2)nc2c1CN(C(=O)Cc1ccc(Cl)cc1)CC2` yielded an RP-LC retention time of 652 s.

In turn, `O=C1OC(Nc2nc(-c3cccc(Br)c3)cs2)c2ccccc21` (centres undefined) yielded an RP-LC retention time of 862 s.

`CN(C)c1ccc(C(CNS(C)(=O)=O)N2CCc3ccccc3C2)cc1` (centres undefined) displayed an RP-LC retention time of 573 s.

`CCN1C(=O)COc2ccc(-c3csc(NC(=O)c4ccco4)n3)cc21`: the RP-LC retention time was determined as 840 s.

`COc1cc(OC)c(NC(=O)C(=O)c2ccc[nH]2)cc1Cl` gave an RP-LC retention time of 978 s.

Turning to `CC(C)c1cc(-c2nnc3sc(COc4ccc(Cl)cc4)nn23)n[nH]1`, the RP-LC retention time was found to be 900 s.

For the molecule `Cc1ccc(C)c(NC(=O)NC2CCN(c3ccc(F)cc3)C2=O)c1` (centres undefined), the RP-LC retention time worked out at 842 s.

The molecule `O=C(c1cccs1)N1CCCC(c2nnc(-c3ccccc3)o2)C1` (centres undefined) registered an RP-LC retention time of 805 s.
